From ChEMBL document CHEMBL1201862, “PubChem BioAssay data set” (2004)
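Tested at 5 concentrations; 48 h exposure; 96-well plates; endpoints linearly interpolated, else capped at highest concentration. GI50: concentration for 50% inhibition of growth.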 The source made the active and inactive calls. Cut-off read from the data, not from the text of the source: active = GI50 up to about 1.1 µM and inactive = higher.

Experiments:
Test in all cases: DTP human tumour cell line panel, 48 h
UACC-257 = test system: UACC-257
NCI-H226 = test system: NCI-H226
SR = test system: SR
UO-31 = test system: UO-31
SN12C = test system: SN12C
SNB-75 = test system: SNB-75
M14 = test system: M14
HCC 2998 = test system: HCC 2998
CAKI-1 = test system: CAKI-1
DU-145 = test system: DU-145
SK-OV-3 = test system: SK-OV-3
ACHN = test system: ACHN
HOP-92 = test system: HOP-92
HCT-116 = test system: HCT-116
SF-268 = test system: SF-268
LOX IMVI = test system: LOX IMVI
U-251 = test system: U-251
RPMI-8226 = test system: RPMI-8226
SK-MEL-2 = test system: SK-MEL-2
HL-60 = test system: HL-60

## c1ccc2c(Nc3ncco3)cccc2c1
UACC-257
  GI50: > 10 µM (inactive)
NCI-H226
  GI50: > 10 µM (inactive)
SR
  GI50: 0.001 µM (active)
UO-31
  GI50: > 10 µM (inactive)
SN12C
  GI50: > 10 µM (inactive)
SNB-75
  GI50: > 10 µM (inactive)
M14
  GI50: > 10 µM (inactive)
HCC 2998
  GI50: > 10 µM (inactive)
CAKI-1
  GI50: > 10 µM (inactive)
DU-145
  GI50: > 10 µM (inactive)
SK-OV-3
  GI50: > 10 µM (inactive)
ACHN
  GI50: > 10 µM (inactive)
HOP-92
  GI50: > 10 µM (inactive)
HCT-116
  GI50: > 10 µM (inactive)
SF-268
  GI50: > 10 µM (inactive)
LOX IMVI
  GI50: > 10 µM (inactive)
U-251
  GI50: > 10 µM (inactive)

## CCOC(=O)Nc1ccc(S(=O)(=O)Nc2ccc(Br)cc2)cc1
UACC-257
  GI50: 61.4 µM (inactive)
SR
  GI50: 18.2 µM (inactive)
RPMI-8226
  GI50: 25.1 µM (inactive)
UO-31
  GI50: 34.8 µM (inactive)
SN12C
  GI50: 59.8 µM (inactive)
M14
  GI50: 49.3 µM (inactive)
CAKI-1
  GI50: 35.8 µM (inactive)
SK-MEL-2
  GI50: 47.1 µM (inactive)
DU-145
  GI50: 65.5 µM (inactive)
SK-OV-3
  GI50: 25.9 µM (inactive)
ACHN
  GI50: 30.1 µM (inactive)
HL-60
  GI50: 25.6 µM (inactive)
HOP-92
  GI50: 43.7 µM (inactive)
HCT-116
  GI50: 39.7 µM (inactive)
SF-268
  GI50: 28.2 µM (inactive)
LOX IMVI
  GI50: 26.4 µM (inactive)
U-251
  GI50: 43 µM (inactive)

## O=C(O)c1cc2cc(c1)/N=C/c1ccccc1OCc1cccc(n1)COc1ccccc1/C=N/2
UACC-257
  GI50: > 25 µM (inactive)
NCI-H226
  GI50: 10.9 µM (inactive)
SR
  GI50: 6.38 µM (inactive)
RPMI-8226
  GI50: 7.41 µM (inactive)
UO-31
  GI50: > 25 µM (inactive)
SN12C
  GI50: 14.8 µM (inactive)
SNB-75
  GI50: > 25 µM (inactive)
M14
  GI50: 11.1 µM (inactive)
SK-MEL-2
  GI50: 23.8 µM (inactive)
DU-145
  GI50: > 25 µM (inactive)
SK-OV-3
  GI50: > 25 µM (inactive)
ACHN
  GI50: 23.2 µM (inactive)
HL-60
  GI50: 12.2 µM (inactive)
HOP-92
  GI50: 6.73 µM (inactive)
HCT-116
  GI50: 9.14 µM (inactive)
SF-268
  GI50: 13.2 µM (inactive)
U-251
  GI50: 7.66 µM (inactive)

## NC(=O)C(=CNC(=S)Nc1ccc(S(=O)(=O)Nc2ccccn2)cc1)C(N)=O
UACC-257
  GI50: > 100 µM (inactive)
NCI-H226
  GI50: > 100 µM (inactive)
SR
  GI50: 41.5 µM (inactive)
RPMI-8226
  GI50: > 100 µM (inactive)
UO-31
  GI50: > 100 µM (inactive)
SN12C
  GI50: > 100 µM (inactive)
SNB-75
  GI50: > 100 µM (inactive)
M14
  GI50: > 100 µM (inactive)
HCC 2998
  GI50: > 10 µM (inactive)
CAKI-1
  GI50: > 100 µM (inactive)
SK-MEL-2
  GI50: > 100 µM (inactive)
DU-145
  GI50: > 100 µM (inactive)
SK-OV-3
  GI50: > 100 µM (inactive)
ACHN
  GI50: > 100 µM (inactive)
HOP-92
  GI50: > 100 µM (inactive)
HCT-116
  GI50: 46.7 µM (inactive)
SF-268
  GI50: > 100 µM (inactive)
LOX IMVI
  GI50: > 93.1 µM (inactive)
U-251
  GI50: > 100 µM (inactive)

## Brc1ccc(-c2cn3ccncc3n2)cc1
UACC-257
  GI50: 14.9 µM (inactive)
NCI-H226
  GI50: > 100 µM (inactive)
SR
  GI50: > 100 µM (inactive)
RPMI-8226
  GI50: > 100 µM (inactive)
UO-31
  GI50: > 100 µM (inactive)
SN12C
  GI50: > 100 µM (inactive)
SNB-75
  GI50: > 100 µM (inactive)
M14
  GI50: > 100 µM (inactive)
CAKI-1
  GI50: > 100 µM (inactive)
SK-MEL-2
  GI50: > 100 µM (inactive)
DU-145
  GI50: > 100 µM (inactive)
SK-OV-3
  GI50: > 100 µM (inactive)
ACHN
  GI50: > 100 µM (inactive)
HOP-92
  GI50: > 100 µM (inactive)
HCT-116
  GI50: > 100 µM (inactive)
SF-268
  GI50: > 100 µM (inactive)
LOX IMVI
  GI50: > 100 µM (inactive)
U-251
  GI50: > 100 µM (inactive)

## CSc1ncc2c(n1)-c1ccccc1OC2N1CCOCC1 (stereo not given)
UACC-257
  GI50: 81.8 µM (inactive)
NCI-H226
  GI50: 85.7 µM (inactive)
SR
  GI50: 64.9 µM (inactive)
RPMI-8226
  GI50: 49.9 µM (inactive)
UO-31
  GI50: 42.4 µM (inactive)
SN12C
  GI50: 50 µM (inactive)
SNB-75
  GI50: 44.5 µM (inactive)
M14
  GI50: > 100 µM (inactive)
CAKI-1
  GI50: 50.8 µM (inactive)
SK-MEL-2
  GI50: > 100 µM (inactive)
DU-145
  GI50: > 100 µM (inactive)
SK-OV-3
  GI50: > 100 µM (inactive)
ACHN
  GI50: 80.9 µM (inactive)
HL-60
  GI50: 27.3 µM (inactive)
HOP-92
  GI50: 41.9 µM (inactive)
HCT-116
  GI50: 69.7 µM (inactive)
SF-268
  GI50: 87.9 µM (inactive)
LOX IMVI
  GI50: 65.5 µM (inactive)
U-251
  GI50: > 100 µM (inactive)

## O=C1CC(C(OCc2ccccc2)C(OCc2ccccc2)C(COCc2ccccc2)OCc2ccccc2)CC(=O)N1 (stereo not given)
UACC-257
  GI50: > 100 µM (inactive)
NCI-H226
  GI50: > 100 µM (inactive)
SR
  GI50: > 75 µM (inactive)
RPMI-8226
  GI50: > 75 µM (inactive)
SN12C
  GI50: > 75 µM (inactive)
M14
  GI50: > 75 µM (inactive)
HCC 2998
  GI50: > 75 µM (inactive)
DU-145
  GI50: > 75 µM (inactive)
ACHN
  GI50: > 75 µM (inactive)
HL-60
  GI50: > 100 µM (inactive)
HCT-116
  GI50: > 75 µM (inactive)
SF-268
  GI50: > 75 µM (inactive)
LOX IMVI
  GI50: > 75 µM (inactive)

## COc1ccc(COC(=O)NNC(=O)C2CSC(c3ccccc3)N2C(C)=O)cc1 (stereo not given)
UACC-257
  GI50: > 100 µM (inactive)
NCI-H226
  GI50: > 100 µM (inactive)
RPMI-8226
  GI50: > 100 µM (inactive)
UO-31
  GI50: > 100 µM (inactive)
SN12C
  GI50: > 100 µM (inactive)
SNB-75
  GI50: > 100 µM (inactive)
M14
  GI50: > 100 µM (inactive)
HCC 2998
  GI50: > 100 µM (inactive)
CAKI-1
  GI50: > 100 µM (inactive)
SK-MEL-2
  GI50: > 100 µM (inactive)
DU-145
  GI50: > 100 µM (inactive)
SK-OV-3
  GI50: > 100 µM (inactive)
ACHN
  GI50: > 100 µM (inactive)
HL-60
  GI50: > 100 µM (inactive)
HOP-92
  GI50: > 100 µM (inactive)
HCT-116
  GI50: > 100 µM (inactive)
SF-268
  GI50: > 100 µM (inactive)
LOX IMVI
  GI50: > 100 µM (inactive)
U-251
  GI50: > 100 µM (inactive)

## CC(C)CC1c2[nH]c3ccccc3c2C[C@H]2C(=O)NC(Cc3c[nH]c4ccccc34)C(=O)N12 (stereo not given in full)
UACC-257
  GI50: 14.3 µM (inactive)
NCI-H226
  GI50: 26.9 µM (inactive)
SR
  GI50: 14 µM (inactive)
RPMI-8226
  GI50: 13.9 µM (inactive)
UO-31
  GI50: 14.3 µM (inactive)
SN12C
  GI50: 15.9 µM (inactive)
M14
  GI50: 14.1 µM (inactive)
CAKI-1
  GI50: 23.7 µM (inactive)
SK-MEL-2
  GI50: 16 µM (inactive)
DU-145
  GI50: 20.3 µM (inactive)
SK-OV-3
  GI50: 16.5 µM (inactive)
ACHN
  GI50: 17.8 µM (inactive)
HL-60
  GI50: 11.8 µM (inactive)
HOP-92
  GI50: 13.7 µM (inactive)
HCT-116
  GI50: 11.2 µM (inactive)
SF-268
  GI50: 18 µM (inactive)
LOX IMVI
  GI50: 14.2 µM (inactive)
U-251
  GI50: 12.2 µM (inactive)

## COc1cc2c3c(n(C)c(=O)c2cc1OC)-c1cc2c(cc1/C3=C\CCCI)OCO2
UACC-257
  GI50: > 100 µM (inactive)
NCI-H226
  GI50: 1.34 µM (inactive)
SR
  GI50: 0.239 µM (active)
RPMI-8226
  GI50: 3.92 µM (inactive)
UO-31
  GI50: 0.653 µM (active)
SN12C
  GI50: 8.75 µM (inactive)
M14
  GI50: 2.61 µM (inactive)
CAKI-1
  GI50: 4.35 µM (inactive)
SK-MEL-2
  GI50: > 100 µM (inactive)
DU-145
  GI50: 1.17 µM (inactive)
SK-OV-3
  GI50: 20.9 µM (inactive)
ACHN
  GI50: 0.531 µM (active)
HL-60
  GI50: > 47.1 µM (inactive)
HCT-116
  GI50: 1.47 µM (inactive)
SF-268
  GI50: 0.776 µM (active)
LOX IMVI
  GI50: 8.3 µM (inactive)
U-251
  GI50: 4.21 µM (inactive)

## O=C1c2ccccc2C(=O)N1n1c(Cc2ccccc2)n[nH]c1=O
UACC-257
  GI50: > 100 µM (inactive)
NCI-H226
  GI50: > 100 µM (inactive)
SR
  GI50: > 100 µM (inactive)
UO-31
  GI50: > 100 µM (inactive)
SN12C
  GI50: > 100 µM (inactive)
SNB-75
  GI50: > 100 µM (inactive)
M14
  GI50: > 100 µM (inactive)
HCC 2998
  GI50: > 100 µM (inactive)
CAKI-1
  GI50: > 100 µM (inactive)
SK-MEL-2
  GI50: > 100 µM (inactive)
DU-145
  GI50: > 100 µM (inactive)
ACHN
  GI50: > 100 µM (inactive)
HOP-92
  GI50: > 100 µM (inactive)
HCT-116
  GI50: > 100 µM (inactive)
LOX IMVI
  GI50: > 100 µM (inactive)
U-251
  GI50: > 100 µM (inactive)
